US8987314B2, “Amide, urea or sulfone amide linked benzothiazole inhibitors of endothelial lipase” (Bristol-Myers Squibb Company, priority 2012, dated 2015)

Tests used:
Endothelial lipase (EL) = Endothelial lipase (EL) (Homo sapiens (Human), UniProt Q9Y5X9); assay: EL assay: endothelial lipase activity with fluorescent substrate A10070 in DMPG vesicles; format: biochemical
In short: (§1)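 Compounds were preincubated with enzyme for 30 min at 37° C before FRET-substrate vesicles (A10070 in DMPG, 0.11 mole fraction) were added. Reaction rates were obtained from the 300–900 sec slope of fluorescence at 490/530 nm.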

hepatic lipase (HL) = hepatic lipase (HL) (Homo sapiens (Human), UniProt P11150); assay: HL assay: hepatic lipase activity with fluorescent substrate A10070 in DMPG vesicles; format: biochemical
Chain of hepatic lipase (HL) (P11150 23-499, species assumed): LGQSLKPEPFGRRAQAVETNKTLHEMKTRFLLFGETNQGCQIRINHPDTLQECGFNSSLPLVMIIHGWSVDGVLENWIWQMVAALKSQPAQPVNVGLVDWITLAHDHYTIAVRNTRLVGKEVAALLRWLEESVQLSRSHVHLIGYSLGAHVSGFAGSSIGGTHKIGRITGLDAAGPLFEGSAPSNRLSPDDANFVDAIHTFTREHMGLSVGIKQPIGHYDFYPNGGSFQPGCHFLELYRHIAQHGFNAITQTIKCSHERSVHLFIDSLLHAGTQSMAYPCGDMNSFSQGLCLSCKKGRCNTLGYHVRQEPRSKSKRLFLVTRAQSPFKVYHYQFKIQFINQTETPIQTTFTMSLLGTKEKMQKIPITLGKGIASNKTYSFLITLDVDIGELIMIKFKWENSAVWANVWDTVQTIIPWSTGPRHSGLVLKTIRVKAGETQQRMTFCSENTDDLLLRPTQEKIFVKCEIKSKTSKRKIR
In short: as §1

Chain of Endothelial lipase (EL) (Q9Y5X9 21-500): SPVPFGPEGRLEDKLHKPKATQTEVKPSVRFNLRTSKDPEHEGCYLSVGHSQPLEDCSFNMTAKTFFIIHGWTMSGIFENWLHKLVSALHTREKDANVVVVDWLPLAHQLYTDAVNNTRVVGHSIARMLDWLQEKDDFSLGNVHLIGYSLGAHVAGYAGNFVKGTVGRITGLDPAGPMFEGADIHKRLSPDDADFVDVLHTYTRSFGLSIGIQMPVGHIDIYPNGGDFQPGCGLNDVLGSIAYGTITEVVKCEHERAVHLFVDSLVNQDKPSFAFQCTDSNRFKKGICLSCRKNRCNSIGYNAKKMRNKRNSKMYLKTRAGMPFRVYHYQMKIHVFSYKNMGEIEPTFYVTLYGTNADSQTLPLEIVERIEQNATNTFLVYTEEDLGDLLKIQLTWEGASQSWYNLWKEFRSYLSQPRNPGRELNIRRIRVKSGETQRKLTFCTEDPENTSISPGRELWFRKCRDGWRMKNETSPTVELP

Compound	IC50 (Endothelial lipase (EL))	IC50 (hepatic lipase (HL))
CN(C)C(=O)c1ccc(-c2ccc3nc(C(C(=O)NCCS(N)(=O)=O)S(=O)(=O)CCC(F)(F)F)sc3c2)cc1F (stereo not shown) [Example B230, 2-fluoro-N,N-dimethyl-4-(2-{[(2-sulfamoylethyl)car-bamoyl](3,3,3-trifluoro-propanesulfonyl)meth-yl}-1,3-benzothiazol-6-yl)benzamide]	4.6 nM	37.4 nM
COCCS(=O)(=O)C(C(=O)NCc1cc(C(C)C)no1)c1nc2ccc(-c3ccccc3)cc2s1 (stereo not shown) [Example B232, 2-(2-methoxyethane-sulfonyl)-2-(6-phenyl-1,3-benzothiazol-2-yl)-N-{[3-(propan-2-yl)-1,2-oxazol-5-yl]methyl}acetamide]	45.9 nM	0.8 nM
Cc1cc(CNC(=O)C(c2nc3ccc(-c4ccccc4)cc3s2)S(C)(=O)=O)on1 (stereo not shown) [Example B233]	31.6 nM	3.6 nM
COCCS(=O)(=O)C(C(=O)NCc1cc(C)no1)c1nc2ccc(-c3ccccc3)cc2s1 (stereo not shown) [Example B234, 2-(2-methoxyethane-sulfonyl)-N-[(3-methyl-1,2-oxazol-5-yl)methyl]-2-(6-phenyl-1,3-benzothiazol-2-yl)a-cetamide]	4.9 nM	0.5 nM
Cn1nccc1-c1ccc2nc(C(C(=O)NCCS(N)(=O)=O)S(C)(=O)=O)sc2c1 (stereo not shown) [Example B235, 2-methanesulfonyl-2-[6-(1-methyl-1H-pyrazol-5-yl)-1,3-benzothiazol-2-yl]-N-(2-sulfamoylethyl)a-cetamide]	5.1 nM	3050 nM
CC(=O)Nc1ccc(-c2ccc3nc(C(C(=O)NCCS(N)(=O)=O)S(=O)(=O)CCC(F)(F)F)sc3c2)cc1 (stereo not shown) [Example B236, 2-[6-(4-acetamidophenyl)-1,3-benzothiazol-2-yl]-N-(2-sulfamoylethyl)-2-(3,3,3-trifluoropropane-sulfonyl)acetamide]	0.8 nM	55.3 nM
NS(=O)(=O)CCNC(=O)C(c1nc2ccc(-c3ccc(S(=O)(=O)NCCO)cc3)cc2s1)S(=O)(=O)Cc1ccc(F)cc1 (stereo not shown) [Example B238, 2-[(4-fluorophenyl)methane-sulfonyl]-2-(6-{4-[(2-hydroxyethyl)sulfa-moyl]phenyl}-1,3-benzothiazol-2-yl)-N-(2-sulfamoylethyl)a-cetamide]	9.8 nM	234 nM
COCc1ccc(-c2ccc3nc(C(C(=O)NCCS(N)(=O)=O)S(=O)(=O)CCC(F)(F)F)sc3c2)cc1 (stereo not shown) [Example B239, 2-{6-[4-(methoxymeth-yl)phenyl]-1,3-benzothiazol-2-yl}-N-(2-sulfamoyl-ethyl)-2-(3,3,3-trifluoro-propanesulfonyl)acetamide]	9.4 nM	7.3 nM
NS(=O)(=O)CCNC(=O)C(c1nc2ccc(-c3ccc(CCO)cc3)cc2s1)S(=O)(=O)Cc1ccc(F)cc1 (stereo not shown) [Example B240, 2-[(4-fluorophenyl)methane-sulfonyl]-2-{6-[4-(2-hydroxyethyl)phenyl]-1,3-benzothiazol-2-yl}-N-(2-sulfamoylethyl)a-cetamide]	25.7 nM	76.6 nM
CC(C)(O)CNC(=O)c1ccc(-c2ccc3nc(C(C(=O)NCCS(N)(=O)=O)S(C)(=O)=O)sc3c2)cc1 (stereo not shown) [Example B241, N-(2-hydroxy-2-methyl-propyl)-4-(2-{methane-sulfonyl[(2-sulfamoyl-ethyl)carbamoyl]methyl}-1,3-benzothiazol-6-yl)ben-zamide]	6.4 nM	607 nM
CC(C)(O)CNC(=O)c1ccc(-c2ccc3nc(C(C(=O)NCCS(N)(=O)=O)S(=O)(=O)Cc4ccc(F)cc4)sc3c2)cc1 (stereo not shown) [Example B242, 4-{2-[(4-fluorophenyl)meth-anesulfonyl[(2-sulfa-moylethyl)carbamoyl]meth-yl]-1,3-benzothiazol-6-yl}-N-(2-hydroxy-2-methylpropyl)benzamide]	2.7 nM	109 nM
NS(=O)(=O)CCNC(=O)C(c1nc2ccc(-c3cccc(Cl)c3)cc2s1)S(=O)(=O)Cc1ccc(F)cc1 (stereo not shown) [Example B243, 2-[6-(3-chlorophenyl)-1,3-benzothiazol-2-yl]-2-[(4-fluorophenyl)methanesulfon-yl]-N-(2-sulfamoylethyl)a-cetamide]	4.8 nM	2.4 nM
COC(C)(C)CNC(=O)c1ccc(-c2ccc3nc(C(C(=O)NCCS(N)(=O)=O)S(=O)(=O)CC4CC4)sc3c2)cc1 (stereo not shown) [Example B244, 4-(2-{cyclopropylmethane-sulfonyl[(2-sulfamoyl-ethyl)carbamoyl]methyl}-1,3-benzothiazol-6-yl)-N-(2-methoxy-2-methyl-propyl)benzamide]	0.9 nM	12 nM
NS(=O)(=O)CCNC(=O)C(c1nc2ccc(-c3ccc(CO)cc3)cc2s1)S(=O)(=O)Cc1ccc(F)cc1 (stereo not shown) [Example B245, 2-[(4-fluorophenyl)meth-anesulfonyl]-2-{6-[4-(hydroxymethyl)phenyl]-1,3-benzothiazol-2-yl}-N-(2-sulfamoylethyl)a-cetamide]	2.1 nM	130 nM
COCCN(C)C(=O)c1ccc(-c2ccc3nc(C(C(=O)NCCS(N)(=O)=O)S(C)(=O)=O)sc3c2)cc1F (stereo not shown) [Example B246, 2-fluoro-4-(2-{methanesul-fonyl[(2-sulfamoylethyl)car-bamoyl]methyl}-1,3-benzothiazol-6-yl)-N-(2-methoxyethyl)-N-methyl-benzamide]	2.8 nM	94.4 nM
COCCN(C)C(=O)c1ccc(-c2ccc3nc(C(C(=O)NCCS(N)(=O)=O)S(=O)(=O)CC4CC4)sc3c2)cc1F (stereo not shown) [Example B247, 4-(2-{cyclopropylmethane-sulfonyl[(2-sulfamoyl-ethyl)carbamoyl]methyl}-1,3-benzothiazol-6-yl)-2-fluoro-N-(2-methoxy-ethyl)-N-methylbenzamide]	6.1 nM	127 nM
COCC(C)(C)NC(=O)c1ccc(-c2ccc3nc(C(C(=O)NCCS(N)(=O)=O)S(=O)(=O)CC4CC4)sc3c2)cc1 (stereo not shown) [Example B248, 4-(2-{cyclopropylmethane-sulfonyl[(2-sulfamoyl-ethyl)carbamoyl]methyl}-1,3-benzothiazol-6-yl)-N-(1-methoxy-2-methyl-propan-2-yl)benzamide]	7.5 nM	17.6 nM
COCC(C)(C)NC(=O)c1ccc(-c2ccc3nc(C(C(=O)NCCS(N)(=O)=O)S(=O)(=O)Cc4ccc(OC(F)(F)F)cc4)sc3c2)cc1 (stereo not shown) [Example B249, N-(1-methoxy-2-methyl-propan-2-yl)-4-(2-{[(2-sulfamoylethyl)carbamoyl][4-(trifluoromethoxy)phen-yl]methanesulfonyl-methyl}-1,3-benzothiazol-6-yl)benzamide]	8.3 nM	29.4 nM
COC[C@H](C)NC(=O)c1ccc(-c2ccc3nc(C(C(=O)NCCS(N)(=O)=O)S(=O)(=O)Cc4ccc(OC(F)(F)F)cc4)sc3c2)cc1 (stereo partly drawn) [Example B250, N-[(2S)-1-methoxypropan-2-yl]-4-(2-{[(2-sulfamoyl-ethyl)carbamoyl][4-(trifluoromethoxy)phen-yl]methanesulfonylmethyl}-1,3-benzothiazol-6-yl)ben-zamide]	5.3 nM	38.4 nM
C[C@H]1CN(C(=O)c2ccc(-c3ccc4nc(C(C(=O)NCCS(N)(=O)=O)S(=O)(=O)CC5CC5)sc4c3)cc2)CCO1 (stereo partly drawn) [Example B251, 2-cyclopropylmethane-sulfonyl-2-(6-{4-[(2S)-2-methylmorpholine-4-carbonyl]phenyl}-1,3-benzothiazol-2-yl)-N-(2-sulfamoylethyl)acetamide]	2.6 nM	363 nM
Cc1nnc(CNC(=O)C(c2nc3ccc(-c4ccc(O)cc4)cc3s2)S(=O)(=O)Cc2ccccc2)o1 (stereo not shown) [Example B254, 2-[6-(4-hydroxyphenyl)-1,3-benzothiazol-2-yl]-N-[(5-methyl-1,3,4-oxadiazol-2-yl)methyl]-2-phenylmethanesulfonyl-acetamide]	294 nM	259 nM
Cc1nnc(CNC(=O)C(c2nc3ccc(-c4cccc(N(C)C)c4)cc3s2)S(=O)(=O)Cc2ccccc2)o1 (stereo not shown) [Example B255, 2-{6-[3-(dimethylamino)phen-yl]-1,3-benzothiazol-2-yl}-N-[(5-methyl-1,3,4-oxadiazol-2-yl)methyl]-2-phenylmethanesulfonyl-acetamide]	225 nM	43.5 nM
CS(=O)(=O)C(C(=O)NCc1cccc(S(N)(=O)=O)c1)c1nc2ccc(-c3ccccc3)cc2s1 (stereo not shown) [Example B256, 2-methanesulfonyl-2-(6-phenyl-1,3-benzothiazol-2-yl)-N-[(3-sulfamoylphen-yl)methyl]acetamide]	190 nM	14.7 nM
Cc1nnc(CNC(=O)C(c2nc3ccc(-c4ccc(C(=O)N5CC(F)(F)C5)cc4)cc3s2)S(C)(=O)=O)o1 (stereo not shown) [Example B257, 2-{6-[4-(3,3-difluoroazetidine-1-carbonyl)phen-yl]-1,3-benzothiazol-2-yl}-2-methanesulfonyl-N-[(5-methyl-1,3,4-oxadiazol-2-yl)methyl]a-cetamide]	32 nM	53.3 nM
COCCNC(=O)c1ccc(-c2cc3sc(C(C(=O)NCc4nnc(C)o4)S(=O)(=O)CCOC)nc3cc2F)cc1 (stereo not shown) [Example B258, 4-{5-fluoro-2-[(2-methoxy-ethanesulfonyl)({[(5-methyl-1,3,4-oxadiazol-2-yl)methyl]carbamoyl})meth-yl]-1,3-benzothiazol-6-yl}-N-(2-methoxyeth-yl)benzamide]	57.2 nM	889 nM
COCCS(=O)(=O)C(C(=O)NCc1nnc(C)o1)c1nc2cc(F)c(-c3ccc(C(=O)N(C)C)c(F)c3)cc2s1 (stereo not shown) [Example B259, 2-fluoro-4-{5-fluoro-2-[(2-methoxyethanesulfon-yl)({[(5-methyl-1,3,4-oxadiazol-2-yl)methyl]car-bamoyl})methyl]-1,3-benzothiazol-6-yl}-N,N-dimethylbenzamide]	121 nM	208 nM
